Measured values from patent publication US7037936B2, “Compounds useful for the treatment of cancer, compositions thereof and methods therewith” (Signal Pharmaceuticals, LLC., priority 2002, dated 2006).
Where a name gives a salt, the structure may show the parent alone.

Assays:
Assay type in all cases: cell-based
DF15 (multiple myeloma) = assay: Induction of cell (programmed) death in DF15 cells; conditions: DF15 (multiple myeloma) cell line
U266 (multiple myeloma) = assay: Induction of cell (programmed) death in U266 cells; conditions: U266 (multiple myeloma) cell line
[1] = test system: MDA-435 human breast cancer cells; assay: In vitro cell cycle assay (G1 arrest), propidium iodide DNA content by flow cytometry; conditions: MDA-435 cells synchronized by serum deprivation for 24 hours, released with 10% serum; vehicle 28%
Procedure: Tumor cells were synchronized by serum deprivation for 24 hours, then released by adding 10% serum to the cell culture with either the compound of EXAMPLE 1 ((4-{[3-(2,2-Dimethyl-tetrahydro-pyran-4-yl)-4-phenyl-butylamino]-methyl}-phenyl)-dimethyl-amine) (obtained from ChemBridge Corporation; single peak via HPLC: 20–100% gradient: acetonitrile/water/1% trifluoroacetic acid) or vehicle (dimethylsofloxide). Cells were harvested and stained in 0.04% digitonin working solution with […] propidium iodide. DNA content was analyzed by Flow Cytometry (Coulter). The population of cells in each phase was determined using Expo 32-ADC Software for Coulter EPICS® XL™ Cytometers, version 1.1 B (2001).

[2] = test system: Hela (cervix adenocarcinoma); assay: Induction of cell (programmed) death in Hela cells; conditions: Hela (cervix adenocarcinoma) cell line
HL-60 (leukemia) = assay: Induction of cell (programmed) death in HL-60 cells; conditions: HL-60 (leukemia) cell line
MM1s (multiple myeloma) = assay: Induction of cell (programmed) death in MM1s cells; conditions: MM1s (multiple myeloma) cell line
[3] = test system: MDA-435 human breast cancer cells; assay: In vitro apoptosis assay, Annexin V-FITC and PI staining by flow cytometry; conditions: MDA-435 cells
Procedure: MDA-435 human breast cancer cells were treated with either vehicle or varying doses of the compound of EXAMPLE 1. Cells were harvested and stained with Annexin V-FITC and PI by Flow Cytometry using ApoAlert Annexin V-FITC apoptosis kit (Clonetech, BD). The percentage of apoptotic cells were determined using EPICS® XL™ and XL-MCL, System II™ Software, version 1.0 (1996).

[4] = test system: MDA-MB-231 (breast cancer); assay: Induction of cell (programmed) death in MDA-MB-231 cells; conditions: MDA-MB-231 (breast cancer) cell line
A172 (malignant glioma) = assay: Induction of cell (programmed) death in A172 cells; conditions: A172 (malignant glioma) cell line
MCF-7 (breast cancer) = assay: Induction of cell (programmed) death in MCF-7 cells; conditions: MCF-7 (breast cancer) cell line
A357 (lung cancer) = assay: Induction of cell (programmed) death in A357 cells; conditions: A357 (lung cancer) cell line
[5] = test system: NCIH1703 (non-small cell lung adenocarcinoma); assay: Induction of cell (programmed) death in NCIH1703 cells; conditions: NCIH1703 (non-small cell lung adenocarcinoma) cell line
DU145 (prostate cancer) = assay: Induction of cell (programmed) death in DU145 cells; conditions: DU145 (prostate cancer) cell line
ANB6 (multiple myeloma) = assay: Induction of cell (programmed) death in ANB6 cells; conditions: ANB6 (multiple myeloma) cell line
H929 (multiple myeloma) = assay: Induction of cell (programmed) death in H929 cells; conditions: H929 (multiple myeloma) cell line
[6] = test system: MDA-MB-435 (breast cancer); assay: Induction of cell (programmed) death in MDA-MB-435 cells; conditions: MDA-MB-435 (breast cancer) cell line

CN(C)c1ccc(CNCCC(Cc2ccccc2)C2CCOC(C)(C)C2)cc1 (centres unmarked) [EXAMPLE 1, (4-({[3-(2′,2′-dimethyltetrahydropyran-4′-yl)-4-phenylbutylamino]-methyl}-phenyl)-dimethylaminedihydrochloride]
induction of cell (programmed) death (DF15 (multiple myeloma)): induce cell (programmed) death
induction of cell (programmed) death (U266 (multiple myeloma)): induce cell (programmed) death
G0/G1 to S phase transition blockage [1]: 38%
induction of cell (programmed) death [2]: induce cell (programmed) death
induction of cell (programmed) death (HL-60 (leukemia)): induce cell (programmed) death
induction of cell (programmed) death (MM1s (multiple myeloma)): induce cell (programmed) death
cell population with increased intensity of Annexin V-FITC staining ([3]; varying doses, dose-dependent increase): up to 30%
PI staining of treated cells ([3]; PI stains cells in a late stage of apoptosis): increase in PI staining
induction of cell (programmed) death [4]: induce cell (programmed) death
induction of cell (programmed) death (A172 (malignant glioma)): induce cell (programmed) death
induction of cell (programmed) death (MCF-7 (breast cancer)): induce cell (programmed) death
induction of cell (programmed) death (A357 (lung cancer)): induce cell (programmed) death
induction of cell (programmed) death [5]: induce cell (programmed) death
induction of cell (programmed) death (DU145 (prostate cancer)): induce cell (programmed) death
induction of cell (programmed) death (ANB6 (multiple myeloma)): induce cell (programmed) death
induction of cell (programmed) death (H929 (multiple myeloma)): induce cell (programmed) death
induction of cell (programmed) death [6]: induce cell (programmed) death
